These results are taken from patent publication US10328116B2, “Combinations of proteasome inhibitors and cyclic peptides” (BIG DNA LTD, priority 2014, dated 2019).

Read-outs that look alike come from different tables or passages of the source.

One experiment deals with chymotrypsin-like sites (Homo sapiens, UniProt P28074). The note with it: cited from earlier work.
Experiment [1] deals with CWR22 human prostate cancer xenografts. The note with it: cited from earlier work.
Experiment [2] relates to NCI H-929 Multiple Myeloma Cell Line. In words: NCI H-929 sub-cutaneous xenograft, varied BTZ dose, TGI and TTE (Example 8). The class given is in vivo, mouse. The note with it: endpoint day 18. The protocol: Cilengitide or vehicle was supplied as daily intra-peritoneal injection (45 mg/kg). […] After this point, dosing was continued in groups receiving 0.2 mg/kg and 0.5 mg/kg BTZ±cilengitide until day 31 to allow comparative tumour growth delay (i.e. difference in time to endpoint (TTE). […] TTE was calculated as TTE=[log(endpoint volume)-b]/m where TTE is expressed in days, endpoint volume is expressed in mm^3, b is the intercept, and m is the slope of the line obtained by linear regression of a log-transformed tumour growth data set. TTE values were plotted in Kaplan-Meier diagrams (FIGS. 9 and 10).

Experiment [3] has as its system NCI H-929 human multiple myeloma cells. Put plainly: NCI-H929 sub-cutaneous xenograft mouse tumor model, 'high' bortezomib dose (Example 7). It is filed as in vivo. The settings on record: for Complete response (mice) / No response (mice) / Partial response (mice) / Total RR % (PR+CR): bortezomib 1 mg/kg IV biweekly, cilengitide 45 mg/kg IP QD, N = 10 mice per group. From the text: This was then continued until Day 21.
Partial response (PR) is defined as the first measurement of the tumor volume being 50% or less of its Day 1 volume for three consecutive measurements during the course of the study, and equal to or greater than 13.5 mm^3 for one or more of these three measurements. In a complete response (CR), the tumor volume was less than 13.5 mm^3 for three consecutive measurements during the course of the study. Total response rate (RR) is the sum of PR+CR. Treatment began on day 1 and was stopped on Day 21.

The test system of experiment [4] is WSU-DLCL2 lymphoma xenograft. The settings on record: at MTD; cited from earlier work.
The target in another experiment is 20S proteasome (Homo sapiens, UniProt P20618+P28074). The settings on record: cited from earlier work.
A further experiment has as its system PHTX22L xenografts. The note with it: MTD level treatment; cited from earlier work.
The subject of another experiment is DP54-Luc model. The note with it: in vivo; cited from earlier work.
The next experiment relates to Oci-Ly7-Luc. The note with it: disseminated lymphoma; cited from earlier work.
The test system of experiment [5] is T47D breast cancer cell line. Put plainly: Sulforhodamine B viability, isobologram and combination index in T47D cells (Examples 4-5). The note with it: single agent at its IC50. The class given is cell-based. The protocol: For assessment of combined BTZ and cilengitide toxicity, T47D cells were seeded at a density of 7500 cells/cm^2 in 96-well cell culture plates and incubated for 24 hours. Cilengitide was diluted to 20 μM in complete DMEM, then 3 serial tenfold dilutions of this were performed in complete DMEM (2 μM, 200 nM and 20 nM). Complete DMEM containing no cilengitide was provided for negative controls.
These dilutions (or DMSO for wells containing no BTZ) were added to aliquots of complete DMEM containing 0-20 μM cilengitide for a 1/150 dilution. Aliquots (0.1 mL) of each mixture were added to wells already containing 0.1 mL medium (in duplicate), resulting in a matrix of cilengitide (10 nM-10 μM) and/or BTZ (1 nM-10 μM) or neither agent (diluent only).
OD570nm readings were divided by those resulting from negative control (diluent only) wells and expressed as a percentage. Three independent replicates of this experiment were carried out.
The isoboles were obtained similarly by extrapolation of points representing 50% reduction in viability from line graphs of % viability versus concentration of one agent at variable concentration with the other agent supplied at a fixed concentration. […]

Experiment [6] deals with chymotrypsin-like activity of the proteasome. The note with it: highest dose used in the phase I trial; cited from earlier work.
The next experiment concerns Cos7 cells. In words: Sulforhodamine B relative cell growth assay in Cos7 cells (Example 2). The class given is cell-based. The settings on record: COS-7 (αvβ3 −ve); 10 μM proteasome inhibitor, absence of cRGDfK.
The test system of the next experiment is HEK293 cells. In words: Sulforhodamine B relative cell growth assay in HEK293 cells (Examples 1-3). It is filed as cell-based. The note with it: HEK293 (αvβ3 +ve); 10 μM proteasome inhibitor, absence of cRGDfK.
The conditions of experiment [7]: phase II trials; heavily pretreated patient population; cited from earlier work.
[8] abbreviates: at maximum tolerated dose (MTD).

Chain of chymotrypsin-like sites (P28074 60-263): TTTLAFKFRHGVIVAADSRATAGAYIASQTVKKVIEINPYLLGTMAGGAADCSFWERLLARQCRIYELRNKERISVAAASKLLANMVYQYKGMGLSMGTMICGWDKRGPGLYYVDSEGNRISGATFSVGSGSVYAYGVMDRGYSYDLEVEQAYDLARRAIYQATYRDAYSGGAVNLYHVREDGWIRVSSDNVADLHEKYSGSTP
Procedure for HEK293 cells: Established methodology was used to prepare 80-100% confluent monolayers of HEK293 cells in T75 flasks. Cells were cultured in DMEM (Lonza) supplemented with 10% FBS (Gibco), 2 mM L-glutamine, 100 U/mL penicillin and 100 μg/mL streptomycin (“complete DMEM”).
The cells in T75 flasks were trypsinised and resuspended in complete DMEM. The cells were counted using a Neubauer chamber and seeded at approximate density of 3×10^4 cells/cm^2 and 7500 cells/cm^2 in 96 well flat bottomed tissue culture plates (Corning) 0.1 mL cell suspension per well. Cells were incubated for 24 hours at 37° C./5% CO2 (humidified).
To provide a working stock, BTZ was diluted to 10 mM in DMSO. […]
Briefly: medium was removed from wells and replaced with an equal volume of PBS. […] Optical density (OD570nm) was determined using an ELISA plate reader (Dynex MRX, Dynex Technologies).
In total, 5 replicates of the experiment were carried out. Cells treated with peptide/BTZ mixtures or control mixtures were incubated for 24 hours at 37° C./5% CO2 (humidified) then analysed by sulforhodamine B assay.
The average of the background measurements (i.e. no cells, medium only) was subtracted from each reading. ‘Ti’ is OD570nm following 24 hours treatment with drugs. […]
Using these equations, control cell growth is assigned a relative cell growth value of 100% and all cell growth values are calculated relative to this figure. […]

For `C[C@@]12OC(=O)[C@]1([C@@H](O)[C@@H]1C=CCCC1)NC(=O)[C@@H]2CCCl` [Marizomib], the “inhibition of the chymotrypsin-like sites” value on chymotrypsin-like sites was “up to 100%”.
As for `CC(C)C[C@H](NC(=O)[C@H](Cc1ccccc1)NC(=O)c1cnccn1)B(O)O` [Bortezomib], the values for the anti-tumoral activity entry in experiment [1] (setting [8]) and in [4] were “effective anti-tumoral activity” and “ineffective”, respectively. In addition, the “Tumour growth inhibition (TGI)” value in experiment [2] (0.5 mg/kg BTZ and below, without cilengitide) is “virtually ineffective”; in experiment [2] (BTZ doses of 0.7 mg/kg and greater, biweekly i.v.) it was “almost complete TGI”. Also, the “animals that relapsed (complete relapse)” value in experiment [3] (By Day 42, of 10 animals per group) was found to be 3. The proteasome dissociation half-life entry on 20S proteasome is given as “approximately 110 minutes”.
For `CC(C)C[C@H](NC(=O)CNC(=O)c1cc(Cl)ccc1Cl)B(O)O` [Ixazomib, [(1R)-1-[[2-[(2,5-dichlorobenzoyl)amino]acetyl]amino]-3-methyl-butyl]boronic acid], the anti-tumoral activity result in [1] (at half the MTD) is given as “more effective than bortezomib”; in experiment [1] (setting [8]) it was “effective anti-tumoral activity”; in experiment [4], “significant anti-tumoral activity”. In addition, the anti-tumoral effect entry in the experiment with PHTX22L xenografts is “only ixazomib was found to exhibit an anti-tumoral effect”. The “alleviation of osteolytic bone disease” value with DP54-Luc model is on record as “effective in the alleviation of osteolytic bone disease”. Further, in the experiment on Oci-Ly7-Luc, the antitumoral effect result is listed as “improved antitumoral effect compared with bortezomib”. Moreover, the proteasome dissociation half-life entry on 20S proteasome was “approximately 18 minutes”. Besides, the “release from the proteasome relative to bortezomib” value on 20S proteasome (faster than bortezomib) was “approximately 6 fold”.
As to `CC(C)[C@H]1C(=O)N[C@@H](CCCN=C(N)N)C(=O)NCC(=O)N[C@@H](CC(=O)O)C(=O)N[C@H](Cc2ccccc2)C(=O)N1C` [Cilengitide], the “Complete response (mice)” value in experiment [3] (Day 1), in [3] (Day 4), in [3] (Day 8), in experiment [3] (Day 12), in experiment [3] (Day 15) and in [3] (Day 18) was 0 each time. Besides, the “Complete response (mice)” value in [3] (Day 21) stood at 0. Also, the “No response (mice)” value in experiment [3] (Day 1), in [3] (Day 4), in experiment [3] (Day 8), in experiment [3] (Day 12), in experiment [3] (Day 15) and in experiment [3] (Day 18) was 10 throughout. Moreover, the “No response (mice)” value in [3] (Day 21) came out at 10. The “Partial response (mice)” value in [3] (Day 1), in experiment [3] (Day 4), in experiment [3] (Day 8), in [3] (Day 12), in experiment [3] (Day 15) and in experiment [3] (Day 18) was 0 throughout. For the same compound, the “Partial response (mice)” value in experiment [3] (Day 21) was 0. The “Total RR % (PR+CR)” value in experiment [3] (Day 1), in [3] (Day 4), in experiment [3] (Day 8), in [3] (Day 12), in experiment [3] (Day 15) and in [3] (Day 18) was 0% throughout. The “Total RR % (PR+CR)” value in [3] (Day 21) amounted to 0%. Also, the “CI (combination index)” value in experiment [5] was determined as 1.00.
Take `CC(C)C[C@H](NC(=O)[C@H](CCc1ccccc1)NC(=O)CN1CCOCC1)C(=O)N[C@@H](Cc1ccccc1)C(=O)N[C@@H](CC(C)C)C(=O)[C@@]1(C)CO1` [Carfilzomib]: in experiment [6], the “inhibition of the chymotrypsin-like activity of the proteasome in blood of patients” value was 88%. Besides, the “cell growth relative to untreated control cells” value in the experiment with Cos7 cells was “greater activity than ixazomib, delanzomib and oprozomib”; in the experiment with HEK293 cells it was “greater activity than ixazomib, delanzomib and oprozomib”. The partial response rate in [7] was 24%.
